Tests used:
Jurkat cells = test: TMTpro quantitative proteomics, 16 h; conditions: for Scaled value (to 150), replicate 01 / Scaled value (to 150), replicate 02 / Scaled value (to 150), replicate 03: Jurkat whole cell extracts, TMTpro SPS-MS3
[1] = test system: library of 8380 IKZF3 degrons fused to EGFP in Jurkat cells; test: Pooled mutant ZF degron library screen (FACS EGFPlow vs EGFP+, NGS), 18 h; type: cell-based, human; conditions: for Log2FC: WT degron, residues 146/147/149/150/152/153/154/155/167: FQNQGASFL;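 as to logFC: Log2 fold change of EGFPlow over EGFP+ representation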
[2] = protein AADAT isoform 2 (Q8N5Z0-2)

O=C1CCC(N2C(=O)c3ccccc3C2=O)C(=O)N1 (stereo not shown) [Compound 1, thalidomide, reference compound]
Scaled value (to 150), replicate 01 (Jurkat cells; protein A2M (P01023)): 8.46
Scaled value (to 150), replicate 02 (Jurkat cells; protein A2M (P01023)): 13.549
Scaled value (to 150), replicate 03 (Jurkat cells; protein A2M (P01023)): 7.506
Scaled value (to 150), replicate 01 (Jurkat cells; protein AAAS (Q9NRG9)): 10.0487
Scaled value (to 150), replicate 02 (Jurkat cells; protein AAAS (Q9NRG9)): 9.769
Scaled value (to 150), replicate 03 (Jurkat cells; protein AAAS (Q9NRG9)): 10.5105
Scaled value (to 150), replicate 01 (Jurkat cells; protein AACS (Q86V21)): 10.2228
Scaled value (to 150), replicate 02 (Jurkat cells; protein AACS (Q86V21)): 10.5542
Scaled value (to 150), replicate 03 (Jurkat cells; protein AACS (Q86V21)): 9.811
Scaled value (to 150), replicate 01 (Jurkat cells; [2]): 9.84
Scaled value (to 150), replicate 02 (Jurkat cells; [2]): 10.2362
Scaled value (to 150), replicate 03 (Jurkat cells; [2]): 11.2082
proteins degraded (quantitative proteomics) (Jurkat cells; Jurkat, 10 μM, 16 h, 9644 quantified proteins): did not induce major protein degradation
Log2FC ([1]; listed as Thal): 1.13
Log2FC ([1]; listed as Thalidomide): 1.1337
logFC ([1]; degron residues 146/147/149/150/152/153/154/155/167: FADIGAAFL): -0.52
logFC ([1]; degron residues 146/147/149/150/152/153/154/155/167: FADIGAAFL, listed as A32): -0.5175
logFC ([1]; degron residues 146/147/149/150/152/153/154/155/167: FADIGACFL): -1.27
logFC ([1]; degron residues 146/147/149/150/152/153/154/155/167: FADIGACFL, listed as A32): -1.269
logFC ([1]; degron residues 146/147/149/150/152/153/154/155/167: FADIGADFL): -2.30
logFC ([1]; degron residues 146/147/149/150/152/153/154/155/167: FADIGADFL, listed as A32): -2.302
logFC ([1]; degron residues 146/147/149/150/152/153/154/155/167: FADIGAEFL): -1.72
logFC ([1]; degron residues 146/147/149/150/152/153/154/155/167: FADIGAEFL, listed as A32): -1.72
logFC ([1]; degron residues 146/147/149/150/152/153/154/155/167: FADIGAFFL): -2.34
logFC ([1]; degron residues 146/147/149/150/152/153/154/155/167: FADIGAGFL): -1.45
logFC ([1]; degron residues 146/147/149/150/152/153/154/155/167: FADIGAHFL): -1.89
logFC ([1]; degron residues 146/147/149/150/152/153/154/155/167: FADIGAIFL): -1.38
logFC ([1]; degron residues 146/147/149/150/152/153/154/155/167: FADIGAKFL): -0.77
logFC ([1]; degron residues 146/147/149/150/152/153/154/155/167: FADIGALFL): -1.99
logFC ([1]; degron residues 146/147/149/150/152/153/154/155/167: FADIGAMFL): -1.81
logFC ([1]; degron residues 146/147/149/150/152/153/154/155/167: FADIGANFL): -1.52
logFC ([1]; degron residues 146/147/149/150/152/153/154/155/167: FADIGAPFL): 0.38
logFC ([1]; degron residues 146/147/149/150/152/153/154/155/167: FADIGAQFL): -1.14
logFC ([1]; degron residues 146/147/149/150/152/153/154/155/167: FADIGARFL): -0.98
logFC ([1]; degron residues 146/147/149/150/152/153/154/155/167: FADIGASFL): -1.01
logFC ([1]; degron residues 146/147/149/150/152/153/154/155/167: FADIGATFL): -1.50
logFC ([1]; degron residues 146/147/149/150/152/153/154/155/167: FADIGAVFL): -1.28
logFC ([1]; degron residues 146/147/149/150/152/153/154/155/167: FADIGAWFL): -2.70
logFC ([1]; degron residues 146/147/149/150/152/153/154/155/167: FADIGAYFL): -1.46
logFC ([1]; degron residues 146/147/149/150/152/153/154/155/167: FADQGAAFL): -3.14
logFC ([1]; degron residues 146/147/149/150/152/153/154/155/167: FADQGACFL): -2.81
logFC ([1]; degron residues 146/147/149/150/152/153/154/155/167: FADQGADFL): -2.96
logFC ([1]; degron residues 146/147/149/150/152/153/154/155/167: FADQGAEFL): -3.47
logFC ([1]; degron residues 146/147/149/150/152/153/154/155/167: FADQGAFFL): -3.47
logFC ([1]; degron residues 146/147/149/150/152/153/154/155/167: FADQGAGFL): -2.45
logFC ([1]; degron residues 146/147/149/150/152/153/154/155/167: FADQGAHFL): -3.40
logFC ([1]; degron residues 146/147/149/150/152/153/154/155/167: FADQGAIFL): -2.61
logFC ([1]; degron residues 146/147/149/150/152/153/154/155/167: FADQGAKFL): -2.20
logFC ([1]; degron residues 146/147/149/150/152/153/154/155/167: FADQGALFL): -2.67
logFC ([1]; degron residues 146/147/149/150/152/153/154/155/167: FADQGAMFL): -2.56
logFC ([1]; degron residues 146/147/149/150/152/153/154/155/167: FADQGANFL): -3.17
logFC ([1]; degron residues 146/147/149/150/152/153/154/155/167: FADQGAPFL): -2.41
